Experimental findings from patent US10399972B2, “Tricyclic compounds as inhibitors of mutant IDH enzymes” (Merck Sharp & Dohme Corp., priority 2015, dated 2019) are described below.

Molecules are shown by their SMILES.

Sequence of R132H mutant IDH1 enzyme (O75874 whole entry R132H): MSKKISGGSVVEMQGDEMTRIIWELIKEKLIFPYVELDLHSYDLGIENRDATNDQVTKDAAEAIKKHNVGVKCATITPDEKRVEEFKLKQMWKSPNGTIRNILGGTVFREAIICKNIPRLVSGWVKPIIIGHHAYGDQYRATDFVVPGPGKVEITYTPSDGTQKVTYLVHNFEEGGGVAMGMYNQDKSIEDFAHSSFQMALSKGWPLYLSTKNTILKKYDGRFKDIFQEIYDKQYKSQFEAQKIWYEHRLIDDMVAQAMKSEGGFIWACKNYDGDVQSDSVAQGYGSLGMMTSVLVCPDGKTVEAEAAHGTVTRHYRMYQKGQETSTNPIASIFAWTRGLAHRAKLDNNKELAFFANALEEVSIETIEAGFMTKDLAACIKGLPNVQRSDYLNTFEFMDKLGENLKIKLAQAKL

The assay addresses R132H mutant IDH1 enzyme (Homo sapiens (Human), UniProt O75874, R132H). The experiment in a line: R132H IDH1 Enzymatic Assay. The assay is classed as biochemical. Particulars: 1.5 nM final, 30 min preincubation, 60 min reaction, Kinase-GLO luminescence. The protocol:
R132H IDH1 Enzymatic Assay
Each test compound (10 mM stock in DMSO) is diluted in DMSO to make a 10-point, 3-fold dilution series. 125 nL of each dilution or DMSO alone is dispensed to a 384-well Greiner Lumitrac 200 assay plate using an Echo® Liquid Handler. To each well of the plate is added 20 uL of enzyme in assay buffer or assay buffer alone. Assay buffer consists of 50 mM sodium phosphate, pH 7.0, 50 mM magnesium chloride, 50 mM sodium chloride, and 0.01% (w/v) bovine serum albumin. When present, the R132H mutant IDH1 enzyme is at a working concentration of 1.875 nM (final concentration in assay of 1.5 nM). The assay plate is allowed to incubate for 30 minutes at room temperature and 5 uL of 5× substrate mixture (2.5 uM nicotinamide adenine dinucleotide phosphate, 100 uM adenosine diphosphate, 7.5 mM glyceraldehyde-3-phosphate, 7.5 ug/mL of spinach glyceraldehyde-3-phosphate dehydrogenase, 25 nM phosphoglycerate kinase, and 5 mM alpha-ketoglutarate in assay buffer) is added to all wells. The reaction plate is incubated for 60 minutes followed by addition of 25 uL of Promega Kinase-GLO reagent to all wells and 10-minute incubation.
Luminescence is measured using a PerkinElmer Envision plate reader. The percent activity of each dilution is determined as the ratio of background corrected signal to the background corrected signal of wells receiving only DMSO. IC50 values are determined by fitting percent activity data to a four-parameter logistic dose response equation. The IC50 values of the exemplified compounds are included in Table 8.
As a reminder, the IC50 is the midpoint of a concentration-inhibition curve. The low end stands for higher potency, the high end for lower potency. As for `Cn1nccc1-c1cc2c(cc1F)Nc1ncc(F)cc1CN2C(=O)C1CCN(CC(F)(F)F)CC1` [Example 50, (3,9-Difluoro-8-(1-methyl-1H-pyrazol-5-yl)-5,11-dihydro-6H-benzo[b]pyrido[2,3-e][1,4]diazepin-6-yl)(1-(2,2,2-trifluoroethyl)piperidin-4-yl)methanone], the IC50 was found to be 3.5 nM.

`O=C(C1CCN(CC(F)(F)F)CC1)N1Cc2cc(F)cnc2Nc2cc(F)c(-c3ccn[nH]3)cc21` [Example 51, (3,9-difluoro-8-(1H-pyrazol-5-yl)-5,11-dihydro-6H-benzo[b]pyrido[2,3-e][1,4]diazepin-6-yl)(1-(2,2,2-trifluoroethyl)piperidin-4-yl)methanone] registered an IC50 of 3.6 nM.

In turn, `Cn1cc(-c2cc3c(cc2F)Nc2ncccc2CN3C(=O)C2CCN(CC(F)(F)F)CC2)cn1` [Example 52, (9-Fluoro-8-(1-methyl-1H-pyrazol-4-yl)-5,11-dihydro-6H-benzo[b]pyrido[2,3-e][1,4]diazepin-6-yl)(1-(2,2,2-trifluoroethyl)piperidin-4-yl)methanone] returned an IC50 of 5.7 nM.

The compound `Cn1nccc1-c1cc2c(cc1F)Nc1ncccc1CN2C(=O)C1CCN(CC(F)(F)F)CC1` [Example 53, (9-fluoro-8-(1-methyl-1H-pyrazol-5-yl)-5,11-dihydro-6H-benzo[b]pyrido[2,3-e][1,4]diazepin-6-yl)(1-(2,2,2-trifluoroethyl)piperidin-4-yl)methanone] had an IC50 of 7.2 nM.

Compound `O=C(C1CCN(CC(F)(F)F)CC1)N1Cc2cc(F)cnc2Nc2ccc([C@H]3COCCO3)cc21` [Example 54, (S)-(8-(1,4-Dioxan-2-yl)-3-fluoro-5,11-dihydro-6H-benzo[b]pyrido[2,3-e][1,4]diazepin-6-yl)(1-(2,2,2-trifluoroethyl)piperidin-4-yl)methanone] showed an IC50 of 5.6 nM.

Turning to `O=C(C1CCN(CC(F)(F)F)CC1)N1Cc2cc(F)cnc2Nc2ccc([C@@H]3COCCO3)cc21` [Example 55, (R)-(8-(1,4-dioxan-2-yl)-3-fluoro-5,11-dihydro-6H-benzo[b]pyrido[2,3-e][1,4]diazepin-6-yl)(1-(2,2,2-trifluoroethyl)piperidin-4-yl)methanone], 6.5 nM corresponded to half-maximal inhibition (IC50).

`O=C(C1CCN(CC(F)(F)F)CC1)N1Cc2cccnc2Nc2cc(F)c([C@@H]3COCCO3)cc21` [Example 56, (R)-(8-(1,4-Dioxan-2-yl)-9-fluoro-5,11-dihydro-6H-benzo[b]pyrido[2,3-e][1,4]diazepin-6-yl)(1-(2,2,2-trifluoroethyl)piperidin-4-yl)methanone] had an IC50 of 18.1 nM.

Regarding `O=C(C1CCN(CC(F)(F)F)CC1)N1Cc2cccnc2Nc2cc(F)c([C@H]3COCCO3)cc21` [Example 57, (S)-(8-(1,4-dioxan-2-yl)-9-fluoro-5,11-dihydro-6H-benzo[b]pyrido[2,3-e][1,4]diazepin-6-yl)(1-(2,2,2-trifluoroethyl)piperidin-4-yl)methanone], the IC50 came out at 12.2 nM.

As to `Cc1cc2c(cc1N1C[C@@H]3CC[C@H]1CO3)N(C(=O)[C@H]1CC[C@H](OC(C)C)CC1)Cc1cccnc1N2` [Example 58, (trans-4-isopropoxycyclohexyl){9-methyl-8-[(1S,4S)-2-oxa-5-azabicyclo[2.2.2]oct-5-yl]-5,11-dihydro-6H-pyrido[2,3-b][1,5]benzodiazepin-6-yl}methanone], the IC50 was 18.3 nM.

Consider `Cc1c(N2C[C@@H]3CC[C@H]2CO3)ccc2c1N(C(=O)[C@H]1CC[C@H](OC(C)C)CC1)Cc1cccnc1N2` [Example 59, (trans-4-isopropoxycyclohexyl){7-methyl-8-[(1S,4S)-2-oxa-5-azabicyclo[2.2.2]oct-5-yl]-5,11-dihydro-6H-pyrido[2,3-b][1,5]benzodiazepin-6-yl}methanone], for which the IC50 came out at 58.7 nM.

Take `Cc1cc2c(cc1N1C[C@H]3CC[C@@H]1CO3)N(C(=O)[C@H]1CC[C@H](OC(C)C)CC1)Cc1cccnc1N2` [Example 60, (trans-4-isopropoxycyclohexyl){9-methyl-8-[(1R,4R)-2-oxa-5-azabicyclo[2.2.2]oct-5-yl]-5,11-dihydro-6H-pyrido[2,3-b][1,5]benzodiazepin-6-yl}methanone]: inhibition was half-maximal at 25.9 nM (IC50).

Turning to `Cc1c(N2C[C@H]3CC[C@@H]2CO3)ccc2c1N(C(=O)[C@H]1CC[C@H](OC(C)C)CC1)Cc1cccnc1N2` [Example 61, (trans-4-isopropoxycyclohexyl){7-methyl-8-[(1R,4R)-2-oxa-5-azabicyclo[2.2.2]oct-5-yl]-5,11-dihydro-6H-pyrido[2,3-b][1,5]benzodiazepin-6-yl}methanone], the IC50 was 54.1 nM.

Compound `CC(C)O[C@H]1CC[C@H](C(=O)N2Cc3cccnc3Nc3cc(F)c(N4CC5CCC4CO5)cc32)CC1` (stereo partly drawn) [Example 62, [9-fluoro-8-(2-oxa-5-azabicyclo[2.2.2]oct-5-yl)-5,11-dihydro-6H-pyrido[2,3-b][1,5]benzodiazepin-6-yl](trans-4-isopropoxycyclohexyl)methanone] had an IC50 of 35.2 nM.

Compound `CC(C)O[C@H]1CC[C@H](C(=O)N2Cc3cccnc3Nc3ccc(N4CC5CCC4CO5)c(F)c32)CC1` (stereo partly drawn) [Example 63, [7-fluoro-8-(2-oxa-5-azabicyclo[2.2.2]oct-5-yl)-5,11-dihydro-6H-pyrido[2,3-b][1,5]benzodiazepin-6-yl](trans-4-isopropoxycyclohexyl)methanone] gave an IC50 of 57 nM.

As to `CC(C)O[C@H]1CC[C@H](C(=O)N2Cc3cccnc3Nc3cc(F)c(N4C[C@@H]5C[C@H]4CO5)cc32)OC1` [Example 64, (8-((1S,4S)-2-Oxa-5-azabicyclo[2.2.1]heptan-5-yl)-9-fluoro-5H-benzo[b]pyrido[2,3-e][1,4]diazepin-6(11H)-yl)((2R,5S)-5-isopropoxytetrahydro-2H-pyran-2-yl)methanone], the IC50 is 46.3 nM.

In the case of `CC(C)OC1CCC(C(=O)N2c3cc(Cl)ccc3Nc3ncccc3C2C)CC1` (stereo not drawn) [Example 65, (8-Chloro-5-methyl-5,11-dihydro-6H-benzo[b]pyrido[2,3-e][1,4]diazepin-6-yl)(trans-4-isopropoxycyclohexyl)methanone], the IC50 is 106 nM.

As to `CC(C)O[C@H]1CC[C@H](C(=O)N2c3cc(N4CCOCC4)ccc3Nc3ncccc3C2C)CC1` (stereo partly drawn) [Example 66, (Trans-4-isopropoxycyclohexyl)(5-methyl-8-morpholino-5,11-dihydro-6H-benzo[b]pyrido[2,3-e][1,4]diazepin-6-yl)methanone], the concentration for half-maximal inhibition (IC50) worked out at 71.9 nM.

The compound `COc1ccc2c(c1)N(C(=O)C1CCN(CC(F)(F)F)CC1)C(C)c1cccnc1N2` (stereo not drawn) [Example 67, (8-Methoxy-5-methyl-5,11-dihydro-6H-benzo[b]pyrido[2,3-e][1,4]diazepin-6-yl)(1-(2,2,2-trifluoroethyl)piperidin-4-yl)methanone] showed an IC50 of 215 nM.

On to `COc1ccc2c(c1)N(C(=O)[C@H]1CC[C@H](OC(C)C)CC1)C(C)c1cccnc1N2` (stereo partly drawn) [Example 68, (Trans-4-isopropoxycyclohexyl)(8-methoxy-5-methyl-5,11-dihydro-6H-benzo[b]pyrido[2,3-e][1,4]diazepin-6-yl)methanone], for which half-maximal inhibition (IC50) required 112 nM.

The compound `Cc1cnc2c(c1)CN(C(=O)[C@H]1CC[C@H](OC(C)C)CC1)c1cc(N3C[C@@H]4CC[C@H]3CO4)ccc1N2` [Example 69, (8-((1S,4S)-2-Oxa-5-azabicyclo[2.2.2]octan-5-yl)-3-methyl-5,11-dihydro-6H-benzo[b]pyrido[2,3-e][1,4]diazepin-6-yl)(trans-4-isopropoxycyclohexyl)methanone] yielded an IC50 of 103 nM.

Compound `CC(C)O[C@H]1CC[C@H](C(=O)N2Cc3cc(S(C)(=O)=O)cnc3Nc3ccc(N4C[C@@H]5CC[C@H]4CO5)cc32)CC1` [Example 70, (8-((1S,4S)-2-oxa-5-azabicyclo[2.2.2]octan-5-yl)-3-(methylsulfonyl)-5,11-dihydro-6H-benzo[b]pyrido[2,3-e][1,4]diazepin-6-yl)(trans-4-isopropoxycyclohexyl)methanone] showed an IC50 of 5750 nM.

Consider `CC(C)O[C@H]1CC[C@H](C(=O)N2Cc3cc(Cl)cnc3Nc3ccc(N4C[C@@H]5CC[C@H]4CO5)cc32)CC1` [Example 71, (8-((1S,4S)-2-Oxa-5-azabicyclo[2.2.2]octan-5-yl)-3-chloro-5,11-dihydro-6H-benzo[b]pyrido[2,3-e][1,4]diazepin-6-yl)(trans-4-isopropoxycyclohexyl)methanone], for which the IC50 was found to be 30 nM.

The compound `O=C(C1CCN(CC(F)(F)F)CC1)N1Cc2cc(F)cnc2Nc2cc(F)ccc21` [Example 72, (3,9-Difluoro-5,11-dihydro-6H-benzo[b]pyrido[2,3-e][1,4]diazepin-6-yl)(1-(2,2,2-trifluoroethyl)piperidin-4-yl)methanone] came in with an IC50 of 160 nM.

Turning to `O=C(C1CCN(CC(F)(F)F)CC1)N1Cc2cc(F)cnc2Nc2cc(F)c(N3CC4CCC3CO4)cc21` (stereo not drawn) [Example 73, (8-(2-oxa-5-azabicyclo[2.2.2]octan-5-yl)-3,9-difluoro-5H-benzo[b]pyrido[2,3-e][1,4]diazepin-6(11H)-yl)(1-(2,2,2-trifluoroethyl)piperidin-4-yl)methanone], the IC50 was determined as 10 nM.
